Earlier results as cited in patent US10688070B2, “Serine glycerophospholipid preparation and method for treatment of seizures” (ENZYMOTEC LTD., priority 2013, dated 2020).

Test system: Valproate adverse events (hepatotoxicity)
Conditions: in vivo

In the case of `CC/C=C\C/C=C\C/C=C\C/C=C\C/C=C\CCCC(=O)O` [EPA, Eicosapentanoic acid], the “Effect on adverse events of Valproate” value is listed as “did not reveal the same effect”.
